Biological target: StOASS (O-acetylserine sulfhydrylase) (Salmonella typhimurium, UniProt P0A1E3)
Assay: PLP fluorescence titration of ligands with StOASS
Type: binding
Set-up: His tag (N); made in house; host or cells: E. coli BL21(DE3), pET28a(+)
Conditions: similar experimental conditions as cysteine/methionine titrations
Protocol: Titrations of ligands with StOASS were examined by monitoring changes in the active site pyridoxal 5'phosphate (PLP) fluorescence of OASS using a Varian spectrofluorometer. The excitation and emission wavelengths for monitoring PLP signal change upon ligand binding were 412 nm and 507 nm respectively. All experiments were done at 23.0 ± 1°C. Slit widths were set to 5 nm for all experiments and PMT voltage was adjusted to get maximum signal for a given protein concentration. Initial readings of both the sample, Fsamp,0 and buffer, Fbuf,0 were taken, with F0 = Fsamp,0-Fbuf,0 defined as the initial fluorescence of the sample. The sample cuvette was then titrated with aliquots of ligands and mixed, equilibrated for 2-5 minutes before measurement. Data points from five such measurements were averaged to obtain Fave,i. The relative fluorescence quenching upon ligand binding is defined as Qobs,i = (F0-Fobs,i)/F0. All measurements were corrected for dilution, and inner filter effects.
Binding of ligands to OASS was analyzed to obtain the equilibrium binding constant, Kobs = [PL]/[P]*[L], using a single or two independent site binding models (eqn 1)(1) [drawing 1]
Where n, number of binding sites, Qobs, observed fluorescence quenching and Qmax, the maximum fluorescence quenching at saturation.

StOASS (O-acetylserine sulfhydrylase), sequence (P0A1E3 whole entry): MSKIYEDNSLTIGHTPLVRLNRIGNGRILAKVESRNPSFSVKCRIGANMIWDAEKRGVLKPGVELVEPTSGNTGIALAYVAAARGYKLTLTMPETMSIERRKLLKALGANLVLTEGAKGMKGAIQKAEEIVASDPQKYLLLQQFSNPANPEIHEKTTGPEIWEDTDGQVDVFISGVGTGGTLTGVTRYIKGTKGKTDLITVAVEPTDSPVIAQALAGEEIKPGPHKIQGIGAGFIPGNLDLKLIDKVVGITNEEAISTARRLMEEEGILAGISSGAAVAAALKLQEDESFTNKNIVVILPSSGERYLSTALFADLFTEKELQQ

**Q.** Which “binding to OASS when presented as amino acid” value does the source give for `CC[C@H](C)[C@H](N)C(=O)O` [isoleucine, L-isoleucine] here?
**A.** The value was “does not bind OASS”.

— PMC3141655 (BMC Biochemistry, 2011)
